According to paper PMC11513920, “Building Metabolically Stable and Potent Anti-HIV Thioether-Lipid Analogues of Tenofovir Exalidex: A thorough Pharmacological Analysis” (Journal of Medicinal Chemistry, 2024):
Several values for one entry are separate records, joined by “and”; a condition that tells them apart may be missing. Equal values may be shown once.

Tests used:
[1] = Mouse plasma pharmacokinetics after intravenous dose; assay type: in vivo, male C57BL/6 mice; details: i.v. 3 mg/kg; for k (terminal elimination rate constant): 3 mg/kg; for concentration at 0.1 h / concentration at 0.25 h / concentration at 0.5 h / concentration at 1 h / concentration at 2 h / concentration at 4 h / concentration at 6 h / concentration at 8 h: read-out: mean prodrug concentration in plasma; for Cmax at 8 h / Tmax at 8 h / AUC(0-t) at 8 h: prodrug; for AUC(0-t) at 8 h: read-out: AUC0–8h
Protocol: To compare the in vivo PK profiles to TXL and our previously reported drug lead 1 (Tables S19 and S26),[39] one group of male C57BL/6 mice were administered a single oral dose (p.o., 10 mg/kg) of 2a, 16g, or 16h (refer to Experimental Methods). Additionally, a separate group of mice were given a single intravenous dose (i.v., 3 mg/kg) of each prodrug to obtain plasma clearance (Cl), volume of distribution (Vd), and oral bioavailability data. Blood was sampled at 8 time points over 8 h (i.v.) or 24 h (p.o.) postdose, and plasma was isolated via centrifugation. Tissues (liver, kidney, and brain) were also harvested and homogenized at 3 time points over 24 h after oral dose. The concentrations of prodrug and TFV metabolite in each of these samples was then quantified using LC–MS/MS methodology.
Healthy male C57BL/6 mice (8–12 weeks old) weighing 20–30 g were procured from Global, India. Three mice were housed in each cage. Temperature and humidity were maintained at 22 ± 3 °C and 30–70%, respectively, and illumination was controlled to provide for 12 h light and 12 h dark cycles. Temperature and humidity were recorded by an autocontrolled data logger system. All animals were provided a laboratory rodent diet (Envigo Research private Ltd., Hyderabad). Reverse osmosis H2O treated with ultraviolet light was provided ad libitum.
Male mice were divided into two groups (n = 18 total, n = 9 per treatment group, n = 3 per time point, sparse sampling). One group was intravenously administered a solution of 2a, 16g, and 16h in 10% PEG-300, 10% Solutol HS-15, and 80% saline at 3 mg/kg with a dosing volume of 5 mL/kg. The second group was administered a solution of 2a, 16g, and 16h in 10% EtOH and 90% olive oil at 10 mg/kg via oral gavage with a dosing volume of 10 mL/kg.
Blood samples (approximately 60 μL) were collected from retro-orbital plexus under light isoflurane anesthesia such that the samples were obtained predose, as well as at eight time points post dose: 0.1, 0.25, 0.5, 1, 2, 4, 6, and 8 (i.v.) and 0.25, 0.5, 1, 2, 4, 8, 12, and 24 h (p.o.). Immediately after blood collection, plasma samples were harvested by centrifugation at 4000 rpm and 4 °C for 10 min and stored at −70 °C until LC–MS/MS analysis. Following blood collection from p.o. group, liver, kidney, and brain samples were collected (n = 3 per treatment group per time point) at 1, 4, and 24 h post dose. After isolation, tissue samples were rinsed three times with ice-cold saline and dried with blotting paper. Next, the tissue samples were homogenized using ice-cold PBS (pH = 7.4), and the resulting homogenates were stored below −70 °C until LC-MS/MS analysis. The total homogenate volume was 3 times the brain weight and 5 times the liver and kidney weight.
Areas under the concentration–time curves (AUC0–8h and AUC0–24h) were calculated via the linear trapezoidal rule[65] using GraphPad Prism v9. Furthermore, terminal elimination rate constants k were determined using linear regression (slope = −k) of the terminal portion of semilog-transformed concentration–time curves (Figures S44, S45, S47, S48, S50, and S51).

HEK293T cells = test: Cellular cytotoxicity (cell viability, CellTiter 96 or resazurin); details: HEK293T cells, 48 h, compounds formulated with HSA (5:1)
Protocol: (§1) Second, HIV IC50 and cellular CC50 were determined with a pseudoviral, whole (HEK293T) cell, nonreplicative HIV assay, using the HIV-1 subtype C strain MJ4 (refer to Experimental Methods). To account for the unique amphiphilic properties of TXL and the novel HTP-based prodrugs, all compounds were formulated in a human serum albumin (HSA) solution (5:1 drug:protein).
(§2) Assessment of cytotoxicity and antiviral activity of all final compounds in vitro was conducted according to previously reported procedures.[39] In summary, human embryonic kidney (HEK293T) cells maintained in high glucose (25 mM), Dulbecco’s modified Eagle’s medium (DMEM) supplemented with fetal bovine serum (10%), sodium pyruvate (1 mM), L-glutamine (2 mM), HEPES (25 mM), and gentamicin (50 μg/mL) were used for determinations. The cells were maintained in an incubator at 37 °C under 5% CO2 in a humidified atmosphere. For both cytotoxicity and antiviral screening, all compounds were evaluated in duplicate in at least two independent experiments. All final compounds were formulated with human serum albumin (HSA, 5:1 compound to HSA molar ratio) and subsequently diluted with complete DMEM to 200 μM. Fifty microliters of test compound serial dilutions (3-fold) were prepared in 96-well culture plates, after which 50 μL of HEK293T cells (2 × 10^4 cells/well) was added. […] Cytotoxicity was then assessed by quantifying cell viability using the CellTiter 96 Aqueous One Solution Cell Proliferation Assay (Promega, Madison, WI) or resazurin sodium salt (cat# R7017, Merck, Darmstadt, Germany).[61] […] Antiviral activity was then assessed using a single-cycle, nonreplicating, envelope deleted HIV pseudoviral in vitro assay.[62],[63] The assay relies on the introduction of the firefly luciferase gene into HEK293T cells through infection with HIV-like viral particles, containing Reverse Transcriptase (RT) and Integrase (IN) from the HIV-1 subtype C strain MJ4.[64] The expression of the luciferase in the cells is directly proportional to the level of infection by the HIV-like viral particles and can be used to assess the inhibition of HIV-1 RT and IN. To evaluate anti-HIV activity, 3-fold serial dilutions of all final compounds were prepared in 50 μL over the noncytotoxic concentration range (as determined from the cytotoxicity screens described above) in 96-well culture plates. HEK293T cells (2 × 10^4 cells/well) and HIV-like viral particles, standardized to produce a luminescence signal of 1 × 10^6 relative light units (RLUs) in the growth medium only control, were combined, and 50 μL was added to the wells containing serially diluted test compounds. […] The expression of luciferase was subsequently quantified by adding 100 μL of the Bright-Glo Luciferase Assay substrate (Promega, Madison, WI) to each well of the 96-well plates. After incubation at rt for 3 min, luminescence was quantified on the GloMax Explorer Multimode Microplate Reader (Promega, Madison, WI).

HepaRG cells = test: HepaRG cellular metabolic stability; details: for HepaRG t1/2: after 3 h loading at 20 μM, 37 °C
Text: Naturally, due the metabolic complexity of HepaRG cells, we specifically analyzed prodrug cellular uptake and stability, as represented by Cmax and intrinsic clearance (Clint,u) accordingly (Figure 7 and Table 9).
The HepaRG cell line (HPRGC10, Thermo Fisher Scientific) was used to evaluate the cellular permeability and metabolic stability for select final compounds in vitro. The cells were initially thawed with working media composed of HepaRG Thaw, Plate, & General Purpose Medium Supplement (HPRG670), Williams Medium E (100 mL), and GlutaMax (1 mL), all purchased from Thermo Fisher Scientific. […] After the thawing medium was aspirated from each well, the cells were cultured for an additional 6 days with working media consisting of HepaRG Maintenance/Metabolism Medium Supplement (HPRG720), Williams Medium E (500 mL), and GlutaMax (1 mL), all purchased from Thermo Fisher Scientific. Upon completing the 7-day culture period, HepaRG cells were plated in enough wells to allow for duplicate analysis of prodrugs in two independent cellular uptake or metabolic stability experiments. All studied compounds were formulated with human serum albumin (HSA, 5:1 compound to HSA molar ratio) and subsequently diluted to a 20 μM final concentration with assay medium composed of serum-free INVITROGRO HI Medium and TORPEDO Antibiotic Mix purchased from BioIVT. For cellular uptake determinations, the maintenance/metabolism medium was first aspirated from each well, and then the plated cells were spiked with 1.0 mL of test compound stock solution. Subsequently, the plate was incubated at 37 °C under 5% CO2 environment over the desired time course (seven data points/compound). Blank wells not treated with prodrug were included in assay runs as controls and initial time points (0 min). At each time point, the test compound solution was removed from the appropriate wells, and the plated cells were washed with 1.0 mL of DPBS twice. The HepaRG cells were then extracted with 500 μL of cold ISTD solution (1 μM 7-ethoxy-d5-coumarin in 70/30 MeOH/H2O), and the quenched aliquots were centrifuged at 15,000 g for 10 min at 4 °C. […] After obtaining prodrug Cmax and Tmax values from the cellular uptake assay, HepaRG metabolic stability was then assessed. Following the initial 7-day culture procedure, the maintenance/metabolism medium was aspirated from each well, and the plated cells were spiked with 1.0 mL of test compound stock solution. […] The test compound solution was then removed from each well and replaced with untreated dilution medium (i.e., serum-free INVITROGRO HI Medium and TORPEDO Antibiotic Mix), initializing the stability determination. The HepaRG plate was once more incubated at 37 °C under 5% CO2 atmosphere over the desired time course (nine data points/compound), and sample preparation and analysis were handled in identical fashion to cellular uptake experiments.

[2] = test system: HIV-1 subtype C strain MJ4; test: Single-cycle non-replicating HIV pseudoviral luciferase assay in HEK293T cells; details: Human immunodeficiency virus 1, HEK-293T, read-out: HIV IC50
Protocol: as §1, §2

Row | SMILES | k (terminal elimination rate constant) [1] | Vd at 8 h ([1]; male, C57BL/6, mouse, iv) [L/kg] | clearance ([1]; male, C57BL/6, mouse, iv) [mL/min/kg] | half-life ([1]; male, C57BL/6, mouse, iv) [min] | concentration at 0.1 h ([1]; male, C57BL/6, mouse, iv) [ng/mL] | concentration at 0.25 h ([1]; male, C57BL/6, mouse, iv) [ng/mL] | concentration at 0.5 h ([1]; male, C57BL/6, mouse, iv) [ng/mL] | concentration at 1 h ([1]; male, C57BL/6, mouse, iv) [ng/mL] | concentration at 2 h ([1]; male, C57BL/6, mouse, iv) [ng/mL] | concentration at 4 h ([1]; male, C57BL/6, mouse, iv) [ng/mL] | concentration at 6 h ([1]; male, C57BL/6, mouse, iv) [ng/mL] | concentration at 8 h ([1]; male, C57BL/6, mouse, iv) [ng/mL] | Cmax at 8 h ([1]; male, C57BL/6, mouse, iv) [ng/mL] | Tmax at 8 h ([1]; male, C57BL/6, mouse, iv) [min] | AUC(0-t) at 8 h ([1]; male, C57BL/6, mouse, iv) [ng·h/mL] | CC50 (HEK293T cells) [µM] | half-life at 8 h ([1]; male, C57BL/6, mouse, iv) [min] | HepaRG t1/2 (HepaRG cells) [min] | IC50 [2] [µM] | HepaRG Clint,u (HepaRG cells; calculated from cellular t1/2) [μL/min/million cells]
1 | CCCCCCCCCCCCCCCCSCCCOP(=O)(O)CO[C@H](C)Cn1cnc2c(N)ncnc21.N [2a] | 0.4666 and 0.467 | 18.9 | 147 | 89.4 | 2060 | 320 | 134 | 57.1 | 8.68 | 3.75 | 3.41 | 1.21 | 2060 | 6 | 340 | 49.8 ± 2.9 | – | – | – | –
2 | C[C@H](Cn1cnc2c(N)ncnc21)OCP(=O)(O)OCCCSCCCCCCCCCCCCc1ccc(F)cc1.N [16g] | 0.4057 and 0.406 | 19.9 | 134 | – | 863 | 315 | 227 | 71.5 | 21.6 | 12.1 | 7.5 | 3.12 | 863 | 6 | 373 | – | 103 | 46.7 ± 0.3 | 0.008 to 0.012 | –
3 | C[C@H](Cn1cnc2c(N)ncnc21)OCP(=O)(O)OCCCSCCCCCCCCCCCCC1CCCCC1.N [16h] | 0.5743 and 0.574 | 8.97 | 85.8 | – | 2380 | 522 | 406 | 127 | 17.4 | 8.98 | 3.65 | 1.41 | 2380 | 6 | 583 | 47.5 ± 8.7 | 72.6 | 71.0 ± 0.4 | 0.008 to 0.012 | 17.8
